O=c1c(-c2ccc(O)cc2)coc2cc(O[C@@H]3O[C@H](CO)[C@@H](O)[C@H](O)[C@H]3O)cc(O)c12
solubility (mole fraction)
Settings	283.2 K	293.2 K	303.2 K	313.2 K	323.2 K
in THF	8.67e-05	0.000101	0.000123	0.000149	0.000186
in acetone	0.000354	0.000361	0.000369	0.000382	0.000388
in acetonitrile	1.15e-06	1.61e-06	2.15e-06	2.62e-06	3.12e-06
in chloroform	2.86e-07	3.37e-07	4.14e-07	5.02e-07	6.54e-07
in cyclohexane	2.66e-07	4.59e-07	6.56e-07	9.11e-07	1.25e-06
in ethanol	2.63e-05	2.85e-05	3.28e-05	3.72e-05	4.38e-05
in ethyl acetate	1.17e-06	1.52e-06	1.99e-06	2.55e-06	3.25e-06
in isopropanol	7.95e-06	1.05e-05	1.34e-05	1.71e-05	2.2e-05
in methanol	5e-05	5.54e-05	5.91e-05	6.44e-05	7.04e-05
in n-butanol	4.78e-06	8.48e-06	1.25e-05	1.56e-05	1.91e-05
in n-hexane	3.64e-07	4.87e-07	6.47e-07	8.58e-07	1.14e-06
